Measurements as given in patent EP0341661A2, “Peptide-drug compositions containing alpha-aminoboronic acid derivatives” (THE DU PONT MERCK PHARMACEUTICAL COMPANY, priority 1988, dated 1989).

Legend:
[1] = test system: aminopeptidases; experiment: In situ nasal perfusion: degradation of 100 µM leucine enkephalin in the nasal perfusate; type: in vivo, Sprague-Dawley rats; conditions: for % Leucine Enkephalin Remaining: 0.1 µM inhibitor; for order of inhibition of degradation: 0.1 µM boroleucine, 10 µM bestatin, 100 µM puromycin
Method: In order to evaluate the effectiveness of the α-aminoboronic acid derivative inhibitors of this invention, an animal model was used (according to A. Hussain, J. Furaj, A. Yukihiko and J. E. Truelove, Biochem. Biophys. Res. Com. 133, 923, 1985) to assess the degradation of proteins and peptides in situ and in vivo in situ in the nasal cavity of rats. The method involved the use of Sprague-Dawley rats weighing approximately 300 grams. Each rat was anesthetized with sodium pentobarbitol (50 mg/kg). An incision was made in the neck and the trachea was canulated with PE 240 tubing. For the in situ studies, a second tube, which served to introduce the perfusing solution, was inserted through the esophagus to the posterior part of the nasal cavity. The nasopalatine was closed with an adhesive to prevent drainage of the perfusing solution from the nasal to the oral cavity. For the in vivo in situ studies, the esophagus was canulated using PE 240 tubing closed at one end. The closed end was pushed to the posterior end of the nasal passage and then tied in place. The nasopalatine was closed with an adhesive to prevent drainage of the perfusing solution from the nasal to the oral cavity. The rats were dosed in one nostril with 50 µl of peptide solution in two forms; the control solution had no inhibitor added, the test solution had inhibitor added at concentrations specified in the examples shown below. The dosing solution was 0.1 M phosphate buffer (pH 7.4). At certain time intervals (one rat/time interval), the drug was washed from the nose via the other nostril with 10 ml of 0.1 M phosphate buffer (pH 3.8) using a peristaltic pump. The nasal washing was then placed in a 10 ml volumetric flask and adjusted to 10 ml with the same buffer and analyzed for the peptide by HPLC. The analysis of leucine enkephalin and its major metabolite involved taking aliquots of samples, diluting them with 200 µl of 0.1 M citric acid (pH 2.3) to quench hydrolysis and subjecting the samples to analysis (for in vivo in situ studies, the washings were injected as they were obtained). High Pressure Liquid Chromatography (HPLC) was run on a 4.6 x 250 mm C₈ column. The mobile phase consisted of 0.1 M NaH₂PO₄-H₃PO₄-acetonitrile (916 : 5 : 275) and was delivered at a flow rate of 1.7 ml/min. Detection was by UV at 210 nm. Retention times for leucine enkephalin and its major degradation product, Des-Tyr-leucine enkephalin were 7.3 and 4.8 min., respectively. Data were calculated as % of leucine enkephalin remaining in the nasal perfusate as a function of time, counting the concentration at zero time as 100%. In this example, a 10 ml solution of 0.1 M phosphate buffer solution (pH 7.4) containing 100 µM leucine enkephalin (the peptide) in the absence or presence of 0.1 µM 3-methyl-1(4,4,5,5-tetramethyl-1,3,2-dioxaborolane-2-yl)-1-butamine, trifluoroacetic acid salt (boroleucine) as the inhibitor was perfused nasally in rats as described above. A 10 ml portion of the peptide solution was placed in a water-jacketed container, maintained at 37°C and circulated through the nasal cavity of rats using a peristaltic pump. The perfusing solution was passed through the nasal cavity, out the nostrils, through a funnel, and returned to the water-jacketed container. The perfusate was analyzed by the ANALYTICAL METHOD described above.

[2] = test system: aminopeptidases; experiment: as above; type: in vivo, Sprague-Dawley rats; conditions: 10 µM inhibitor
[3] = in vivo, cited from earlier work

CC(N)B1OC(C)(C)C(C)(C)O1.O=C(O)C(F)(F)F (stereo not drawn) [boroalanine, α,4,4,5,5-pentamethyl-1,3,2-dioxaborolane-2-methanamine, trifluoroacetic acid salt]
% Leucine Enkephalin Remaining ([1]; 0 min): 100.0± 0.0%
% Leucine Enkephalin Remaining ([1]; 5 min): 94.7± 3.0%
% Leucine Enkephalin Remaining ([1]; 10 min): 91.9± 2.1%
% Leucine Enkephalin Remaining ([1]; 20 min): 88.5± 2.2%
% Leucine Enkephalin Remaining ([1]; 30 min): 84.1± 3.1%
% Leucine Enkephalin Remaining ([1]; 45 min): 77.5± 4.4%
% Leucine Enkephalin Remaining ([1]; 60 min): 69.9± 6.7%
% Leucine Enkephalin Remaining ([1]; 90 min): 56.4±12.1%

CC(C)C[C@H](NC(=O)[C@@H](O)[C@H](N)Cc1ccccc1)C(=O)O [Bestatin, bestatin, reference compound]
% of leucine enkephalin remaining in the nasal perfusate ([2]; 5 min): 97.3±1.6%
% of leucine enkephalin remaining in the nasal perfusate ([2]; 20 min): 90.0±3.3%
% of leucine enkephalin remaining in the nasal perfusate ([2]; 60 min): 72.3±6.7%
order of inhibition of degradation [1]: boroleucine> bestatin> puromycin
% of leucine enkephalin remaining in the nasal perfusate ([1]; 10 µM inhibitor, 0 min): 100.0±0.0%
% of leucine enkephalin remaining in the nasal perfusate ([1]; 10 µM inhibitor, 10 min): 94.7±1.7%
% of leucine enkephalin remaining in the nasal perfusate ([1]; 10 µM inhibitor, 30 min): 86.6±3.8%
% of leucine enkephalin remaining in the nasal perfusate ([1]; 10 µM inhibitor, 45 min): 79.0±5.3%
% of leucine enkephalin remaining in the nasal perfusate ([1]; 10 µM inhibitor, 90 min): 57.3±8.8%

COc1ccc(C[C@H](N)C(=O)N[C@H]2[C@@H](O)[C@H](n3cnc4c(N(C)C)ncnc43)O[C@@H]2CO)cc1 [Puromycin, puromycin, reference compound]
order of inhibition of degradation [1]: boroleucine> bestatin> puromycin
% of leucine enkephalin remaining in the nasal perfusate ([1]; 100 µM inhibitor, 0 min): 100.0±0.0%
% of leucine enkephalin remaining in the nasal perfusate ([1]; 100 µM inhibitor, 5 min): 96.7±2.4%
% of leucine enkephalin remaining in the nasal perfusate ([1]; 100 µM inhibitor, 10 min): 91.3±3.4%
% of leucine enkephalin remaining in the nasal perfusate ([1]; 100 µM inhibitor, 20 min): 82.4±4.1%
% of leucine enkephalin remaining in the nasal perfusate ([1]; 100 µM inhibitor, 30 min): 78.5±3.2%
% of leucine enkephalin remaining in the nasal perfusate ([1]; 100 µM inhibitor, 45 min): 73.6±2.2%
% of leucine enkephalin remaining in the nasal perfusate ([1]; 100 µM inhibitor, 60 min): 63.5±5.6%
% of leucine enkephalin remaining in the nasal perfusate ([1]; 100 µM inhibitor, 90 min): 48.9±6.7%

CC(C)C(N)B1OC(C)(C)C(C)(C)O1.O=C(O)C(F)(F)F (stereo not drawn) [borovaline, 4,4,5,5-tetramethyl-α-(1-methylethyl)-1,3,2-dioxaborolane-2-methanamine, trifluoroacetic acid salt]
% Leucine Enkephalin Remaining ([1]; 0 min): 100.0±0.0%
% Leucine Enkephalin Remaining ([1]; 5 min): 96.3±1.9%
% Leucine Enkephalin Remaining ([1]; 10 min): 95.7±1.5%
% Leucine Enkephalin Remaining ([1]; 20 min): 94.8±1.4%
% Leucine Enkephalin Remaining ([1]; 30 min): 91.6±1.6%
% Leucine Enkephalin Remaining ([1]; 45 min): 89.1±2.5%
% Leucine Enkephalin Remaining ([1]; 60 min): 86.2±2.5%
% Leucine Enkephalin Remaining ([1]; 90 min): 78.3±4.3%
comparison of the inhibitory effect of equimolar concentrations ([1]; 0.1 µM of each inhibitor): superior to boroalanine

leuprolide
improvement of bioavailability over the oral route (factor) ([3]; po): 112 times
drug absorbed systemically ([3]; sc): over 65%
